Results from ChEMBL document CHEMBL1201862, “PubChem BioAssay data set” (2004).
Activity calls are given as the source filed them.

Columns and labels:
[1] = biological target: Cytochrome P450 2D6 (Homo sapiens, UniProt P10635); assay: qHTS Assay for Inhibitors and Substrates of Cytochrome P450 2D6. [Related pubchem assays: 410 ]; type: ADME; settings: read-out: Potency
[2] = Trypanosoma cruzi growth suppression in host cells – NIH3T3 host cells, beta-gal luminescence, confirmation (AID 2044); type: functional, cell-based;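 further: intracellular parasites grown in NIH/3T3 mouse fibroblasts as host cells; luminescent beta-galactosidase reporter signal from transgenic T. cruzi replicating inside host cells; inhibitors lower the luminescence signal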
[3] = biological target: Serine/threonine-protein phosphatase PP1-alpha catalytic subunit (Homo sapiens, UniProt P62136); assay: inhibition of protein phosphatase 1 activity – biochemical, fluorescence, dose response (AID 2403);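 further: phosphatase turnover of OMFP into fluorescent 3-O-methylfluorescein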
[4] = biological target: T1, Streptokinase A (Streptococcus pyogenes serotype M1, UniProt P10520); assay: viability-normalized secreted streptokinase activity reduction – plasminogen activation absorbance, OD405, dose response (AID 1914); type: functional, Streptococcus pyogenes M1 GAS;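 further: secreted streptokinase activity via plasminogen activation per viability signal from cell pellet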
T1 sequence (P10520 whole entry): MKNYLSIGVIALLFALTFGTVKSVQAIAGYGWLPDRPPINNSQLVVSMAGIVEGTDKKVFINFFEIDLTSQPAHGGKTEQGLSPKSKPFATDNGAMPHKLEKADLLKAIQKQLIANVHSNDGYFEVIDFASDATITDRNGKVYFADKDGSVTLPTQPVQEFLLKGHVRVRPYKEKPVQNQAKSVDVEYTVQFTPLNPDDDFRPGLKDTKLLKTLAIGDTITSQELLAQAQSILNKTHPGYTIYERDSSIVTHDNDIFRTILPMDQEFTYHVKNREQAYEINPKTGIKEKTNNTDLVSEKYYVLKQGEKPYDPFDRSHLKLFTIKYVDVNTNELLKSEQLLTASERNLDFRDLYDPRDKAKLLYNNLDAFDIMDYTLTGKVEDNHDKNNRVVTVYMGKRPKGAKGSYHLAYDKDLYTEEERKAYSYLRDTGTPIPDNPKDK

[5] = system: Streptococcus; assay: GAS UMAA2166 growth inhibition – luminescence, BacTiterGlo, counter-screen for streptokinase expression inhibitor project, dose response (AID 1915); type: functional, organism-based;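 further: potency for reduction of bacterial viability or growth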
[6] = system: Streptococcus sp. 'group A'; assay: Streptococcus pyogenes SK(-)GAS viability under kanamycin – luminescence, BacTiterGlo, confirmation, counter-screen for streptokinase expression inhibitor project, dose response (AID 1900); type: functional, organism-based
[7] = biological target: Serine/threonine-protein phosphatase (Homo sapiens, UniProt Q9BPW0); assay: Counterscreen for inhibitors of PP1: fluorescence-based biochemical high throughput dose response assay to identify inhibitors of Protein Phosphatase 5 (PP5). [Related pubchem assays: 2034 (Summary (PP5 inhibitors)), 1987 (PP5 inhibitors in singlate), 2235 (PP1 inhibitors in singlate)]
[8] = system: INS1; assay: INS-1E survival protection against cytokine death – cell-based, luminescence, retest, dose response (AID 449756); type: functional; settings: Rattus norvegicus;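 further: cell death triggered by IL-1 beta plus TNF-alpha plus IFN-gamma mixture; protective hits raise ATP signal compared with cytokine alone wells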
[9] = NIH3T3 cell viability loss – ATP luminescence, mouse fibroblasts, counter-screen, dose response (AID 2010); type: functional, cell-based;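 further: cells exposed to compound for about 90 hours before reading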
[10] = biological target: G-protein coupled receptor 55 (Homo sapiens, UniProt Q9Y2T6); assay: selective activators of receptor GPR55 – imaging, U2OS cells, beta-arrestin-GFP redistribution, primary screen (AID 1961); type: functional
[11] = system: H9c2; assay: cells; type: functional, cell-based; settings: Rattus norvegicus, H9c2, Myocardium;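 further: confirmatory concentration-response retest of ultra-high-throughput screening hits for modulation of myocardial damage; cell death induced by hydrogen peroxide oxidative stress; compound pretreatment for 60 min then peroxide exposure for 2 h; potency is for protecting the cells against peroxide damage rather than for killing them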
[12] = biological target: Voltage-dependent T-type calcium channel subunit alpha-1H (Homo sapiens, UniProt O95180); type: functional;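 further: channel activity triggered by adding a high calcium stimulation buffer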
Voltage-dependent T-type calcium channel subunit alpha-1H, sequence (O95180 whole entry, the tested form may be a part): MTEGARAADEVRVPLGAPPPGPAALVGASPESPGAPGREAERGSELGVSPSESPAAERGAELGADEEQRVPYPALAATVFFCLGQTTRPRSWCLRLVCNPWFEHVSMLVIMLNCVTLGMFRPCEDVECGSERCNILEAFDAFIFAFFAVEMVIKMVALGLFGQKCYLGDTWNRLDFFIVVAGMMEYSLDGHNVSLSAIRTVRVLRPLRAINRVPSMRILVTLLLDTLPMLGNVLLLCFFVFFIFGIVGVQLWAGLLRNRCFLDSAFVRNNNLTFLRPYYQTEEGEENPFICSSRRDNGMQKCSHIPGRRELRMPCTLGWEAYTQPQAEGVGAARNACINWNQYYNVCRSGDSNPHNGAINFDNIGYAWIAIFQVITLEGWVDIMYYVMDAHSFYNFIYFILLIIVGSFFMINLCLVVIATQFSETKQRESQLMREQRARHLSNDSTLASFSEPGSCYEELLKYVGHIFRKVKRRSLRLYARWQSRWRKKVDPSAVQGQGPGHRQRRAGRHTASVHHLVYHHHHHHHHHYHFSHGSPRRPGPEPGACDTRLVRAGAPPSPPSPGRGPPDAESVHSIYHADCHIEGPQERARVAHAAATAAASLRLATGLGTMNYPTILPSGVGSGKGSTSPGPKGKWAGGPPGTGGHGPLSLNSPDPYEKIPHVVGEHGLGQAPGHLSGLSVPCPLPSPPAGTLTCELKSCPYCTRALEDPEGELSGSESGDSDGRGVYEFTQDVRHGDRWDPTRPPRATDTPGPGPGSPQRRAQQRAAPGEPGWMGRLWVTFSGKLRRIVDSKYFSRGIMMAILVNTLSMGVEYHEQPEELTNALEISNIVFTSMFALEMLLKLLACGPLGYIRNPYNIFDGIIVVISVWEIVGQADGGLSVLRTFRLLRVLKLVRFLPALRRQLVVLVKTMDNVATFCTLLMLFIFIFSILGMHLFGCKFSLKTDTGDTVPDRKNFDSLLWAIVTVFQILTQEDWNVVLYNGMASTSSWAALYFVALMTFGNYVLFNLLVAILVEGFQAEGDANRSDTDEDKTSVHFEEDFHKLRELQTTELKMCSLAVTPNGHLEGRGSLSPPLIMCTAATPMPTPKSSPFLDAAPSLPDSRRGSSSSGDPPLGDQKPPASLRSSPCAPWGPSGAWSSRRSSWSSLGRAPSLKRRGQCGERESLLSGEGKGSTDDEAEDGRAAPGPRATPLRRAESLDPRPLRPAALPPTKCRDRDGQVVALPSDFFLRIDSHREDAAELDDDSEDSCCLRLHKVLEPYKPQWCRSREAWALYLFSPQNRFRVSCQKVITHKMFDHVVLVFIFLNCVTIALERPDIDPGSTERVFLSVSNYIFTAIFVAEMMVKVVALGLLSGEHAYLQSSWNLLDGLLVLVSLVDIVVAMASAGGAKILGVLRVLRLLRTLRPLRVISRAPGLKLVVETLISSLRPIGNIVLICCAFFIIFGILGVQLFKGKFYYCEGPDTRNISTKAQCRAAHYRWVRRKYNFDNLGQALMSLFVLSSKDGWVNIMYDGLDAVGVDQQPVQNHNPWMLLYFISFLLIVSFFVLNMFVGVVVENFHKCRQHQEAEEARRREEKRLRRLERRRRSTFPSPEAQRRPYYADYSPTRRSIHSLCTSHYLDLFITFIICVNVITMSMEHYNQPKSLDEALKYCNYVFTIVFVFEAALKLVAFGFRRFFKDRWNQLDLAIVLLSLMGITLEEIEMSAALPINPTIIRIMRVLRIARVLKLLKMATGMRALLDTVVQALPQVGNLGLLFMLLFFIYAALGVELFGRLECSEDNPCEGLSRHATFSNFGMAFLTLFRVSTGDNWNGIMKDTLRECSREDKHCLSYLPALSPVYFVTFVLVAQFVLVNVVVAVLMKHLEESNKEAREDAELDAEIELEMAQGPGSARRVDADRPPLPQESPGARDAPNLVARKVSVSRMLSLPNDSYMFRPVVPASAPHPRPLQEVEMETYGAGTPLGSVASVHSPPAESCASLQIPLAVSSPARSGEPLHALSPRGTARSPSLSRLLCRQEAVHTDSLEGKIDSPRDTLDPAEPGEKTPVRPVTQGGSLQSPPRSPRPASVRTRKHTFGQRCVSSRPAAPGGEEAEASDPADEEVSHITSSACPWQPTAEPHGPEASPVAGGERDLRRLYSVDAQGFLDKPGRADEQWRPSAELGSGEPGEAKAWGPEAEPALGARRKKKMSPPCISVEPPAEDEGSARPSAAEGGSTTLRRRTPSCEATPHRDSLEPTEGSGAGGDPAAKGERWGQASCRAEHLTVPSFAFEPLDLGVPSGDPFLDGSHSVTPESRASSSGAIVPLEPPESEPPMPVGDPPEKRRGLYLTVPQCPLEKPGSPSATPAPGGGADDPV

[13] = biological target: T2, Polyadenylate-binding protein 1 (Homo sapiens, UniProt P11940); assay: MLLE domain peptide-binding blockers, IC50 – biochemical, fluorescence polarization, FITC-PAM2 peptide, dose response (AID 602259); type: functional; settings: read-out: IC50_Mean
T2 sequence (P11940 whole entry, the tested form may be a part): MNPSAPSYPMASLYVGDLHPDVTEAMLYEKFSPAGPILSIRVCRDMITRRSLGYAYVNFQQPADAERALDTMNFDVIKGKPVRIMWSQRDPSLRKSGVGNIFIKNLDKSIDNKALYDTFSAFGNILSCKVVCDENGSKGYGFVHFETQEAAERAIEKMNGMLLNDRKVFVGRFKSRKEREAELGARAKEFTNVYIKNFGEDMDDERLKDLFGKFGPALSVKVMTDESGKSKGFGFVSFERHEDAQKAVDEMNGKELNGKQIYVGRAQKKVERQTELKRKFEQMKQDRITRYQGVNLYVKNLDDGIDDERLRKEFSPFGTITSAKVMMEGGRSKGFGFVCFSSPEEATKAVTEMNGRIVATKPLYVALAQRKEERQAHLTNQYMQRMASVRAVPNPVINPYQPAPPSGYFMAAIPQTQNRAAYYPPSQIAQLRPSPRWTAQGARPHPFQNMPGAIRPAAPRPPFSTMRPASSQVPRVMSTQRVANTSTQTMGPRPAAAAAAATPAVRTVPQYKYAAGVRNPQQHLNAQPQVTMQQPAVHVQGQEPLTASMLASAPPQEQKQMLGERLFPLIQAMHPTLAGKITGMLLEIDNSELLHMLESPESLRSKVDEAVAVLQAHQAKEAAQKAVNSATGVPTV

[14] = biological target: Female germline-specific tumor suppressor gld-1 (Caenorhabditis elegans, UniProt Q17339); assay: blockers of GLD-1/TGE RNA complex formation – biochemical, fluorescence polarization, C. elegans, dose response (AID 2802);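 further: fluorescence polarization of labeled TGE RNA bound by purified gld-1 protein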
Female germline-specific tumor suppressor gld-1, sequence (Q17339 whole entry): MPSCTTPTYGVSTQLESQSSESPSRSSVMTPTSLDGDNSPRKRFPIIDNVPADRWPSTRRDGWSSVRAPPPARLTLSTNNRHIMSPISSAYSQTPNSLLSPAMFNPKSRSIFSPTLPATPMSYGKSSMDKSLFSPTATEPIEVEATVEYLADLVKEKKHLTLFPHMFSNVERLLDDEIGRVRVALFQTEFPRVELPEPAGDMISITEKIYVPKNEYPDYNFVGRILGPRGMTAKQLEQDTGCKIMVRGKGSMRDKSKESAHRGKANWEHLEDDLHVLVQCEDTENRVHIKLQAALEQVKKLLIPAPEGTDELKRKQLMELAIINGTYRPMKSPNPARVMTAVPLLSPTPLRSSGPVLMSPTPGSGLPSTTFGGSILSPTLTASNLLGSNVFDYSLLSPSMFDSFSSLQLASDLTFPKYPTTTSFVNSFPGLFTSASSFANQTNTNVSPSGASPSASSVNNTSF

[15] = biological target: Protein Rev (Human immunodeficiency virus type 1 group M subtype B (isolate HXB2)(HIV-1), UniProt P04618); assay: blockers of HIV Rev/RRE RNA complex – biochemical, fluorescence polarization, HIV-1, dose response (AID 434976); design: species or system Human immunodeficiency virus 1
Protein Rev, sequence (P04618 whole entry): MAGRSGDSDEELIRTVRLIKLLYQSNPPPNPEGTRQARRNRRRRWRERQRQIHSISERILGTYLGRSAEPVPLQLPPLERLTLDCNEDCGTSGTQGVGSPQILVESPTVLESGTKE

[16] = biological target: T2, Polyadenylate-binding protein 1; assay: MLLE binding blockers, Cy5 peptide tracer – biochemical, fluorescence polarization, Cy5-PAM2 peptide, secondary, miRNA deadenylation inhibitor project, dose response (AID 602260); type: functional; settings: read-out: IC50_Mean
[17] = biological target: T3, Tyrosine-protein phosphatase non-receptor type 7 (Homo sapiens, UniProt P35236); type: functional
T3 sequence (P35236 whole entry): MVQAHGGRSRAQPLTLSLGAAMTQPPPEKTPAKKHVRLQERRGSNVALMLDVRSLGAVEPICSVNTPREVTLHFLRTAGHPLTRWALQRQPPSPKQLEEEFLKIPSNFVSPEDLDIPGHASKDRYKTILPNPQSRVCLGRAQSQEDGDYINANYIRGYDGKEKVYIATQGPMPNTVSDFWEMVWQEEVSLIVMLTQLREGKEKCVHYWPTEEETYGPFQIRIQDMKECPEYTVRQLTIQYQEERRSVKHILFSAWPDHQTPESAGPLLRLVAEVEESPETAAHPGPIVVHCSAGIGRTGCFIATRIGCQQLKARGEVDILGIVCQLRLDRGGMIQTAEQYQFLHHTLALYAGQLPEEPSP

[18] = biological target: T4, Dual specificity protein phosphatase 6 (Rattus norvegicus, UniProt Q64346); type: functional
T4 sequence (Q64346 whole entry): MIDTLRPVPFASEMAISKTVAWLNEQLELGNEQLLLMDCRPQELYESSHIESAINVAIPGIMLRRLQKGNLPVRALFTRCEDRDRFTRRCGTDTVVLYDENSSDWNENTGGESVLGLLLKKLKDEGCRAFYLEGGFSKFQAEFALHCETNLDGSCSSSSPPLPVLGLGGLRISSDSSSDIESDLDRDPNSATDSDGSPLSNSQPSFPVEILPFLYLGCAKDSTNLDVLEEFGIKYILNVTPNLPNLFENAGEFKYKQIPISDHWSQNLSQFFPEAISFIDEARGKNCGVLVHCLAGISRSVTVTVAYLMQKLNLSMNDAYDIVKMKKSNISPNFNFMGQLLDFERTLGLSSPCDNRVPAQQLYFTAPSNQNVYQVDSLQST

[19] = biological target: Glyceraldehyde-3-phosphate dehydrogenase (Homo sapiens, UniProt P04406)
Glyceraldehyde-3-phosphate dehydrogenase, sequence (P04406 whole entry): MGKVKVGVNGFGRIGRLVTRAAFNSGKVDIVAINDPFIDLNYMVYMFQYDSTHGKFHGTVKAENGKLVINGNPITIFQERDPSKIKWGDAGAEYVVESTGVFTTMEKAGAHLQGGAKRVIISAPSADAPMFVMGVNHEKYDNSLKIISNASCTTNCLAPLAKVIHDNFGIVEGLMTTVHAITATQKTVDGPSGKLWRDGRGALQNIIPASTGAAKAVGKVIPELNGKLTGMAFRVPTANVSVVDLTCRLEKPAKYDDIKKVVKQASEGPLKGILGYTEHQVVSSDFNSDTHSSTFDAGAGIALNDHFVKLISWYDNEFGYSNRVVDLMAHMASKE

[20] = biological target: T4, Dual specificity protein phosphatase 6
[21] = biological target: Cytochrome P450 2C19 (Homo sapiens, UniProt P33261); assay: qHTS Assay for Inhibitors and Substrates of Cytochrome P450 2C19. [Related pubchem assays: 410 ]; type: ADME; settings: read-out: Potency
[22] = biological target: Lysosomal acid glucosylceramidase (Homo sapiens, UniProt P04062); assay: Dose response cell-based high throughput screening assay to identify enhancers of beta-glucosidase activity. [Related pubchem assays: 784 ]; type: functional
Lysosomal acid glucosylceramidase, sequence (P04062 whole entry): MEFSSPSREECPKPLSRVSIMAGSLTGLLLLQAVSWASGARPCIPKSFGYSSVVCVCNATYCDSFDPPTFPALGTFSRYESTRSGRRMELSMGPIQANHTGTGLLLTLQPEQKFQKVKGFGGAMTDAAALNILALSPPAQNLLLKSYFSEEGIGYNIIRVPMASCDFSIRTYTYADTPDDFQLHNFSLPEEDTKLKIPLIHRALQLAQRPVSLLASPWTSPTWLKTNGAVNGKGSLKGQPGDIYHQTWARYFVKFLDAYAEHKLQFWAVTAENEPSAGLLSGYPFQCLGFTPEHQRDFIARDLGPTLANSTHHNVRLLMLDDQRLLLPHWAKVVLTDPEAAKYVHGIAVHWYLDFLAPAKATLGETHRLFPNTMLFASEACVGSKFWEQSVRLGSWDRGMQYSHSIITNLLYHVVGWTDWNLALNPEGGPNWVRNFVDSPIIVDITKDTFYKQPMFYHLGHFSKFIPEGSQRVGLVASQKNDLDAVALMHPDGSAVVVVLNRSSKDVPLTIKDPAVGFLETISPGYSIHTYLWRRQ

[23] = A cytotoxicity screen of small molecule inhibitors of the PhoP region in Salmonella typhi identified in the primary screen. [Related pubchem assays: 1850, 1864, 1985 ]; type: functional
[24] = biological target: T5, Heat shock factor protein 1 (Mus musculus, UniProt P38532); assay: decrease of HSF1-responsive luciferase luminescence – cell-based, NIH3T3, dose retest, confirmation (AID 2382); type: functional;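 further: NIH3T3 fibroblasts with HSF1-driven luciferase reporter stressed by proteasome inhibitor MG132; luminescence from HSF1-driven luciferase expression after 8 hours of MG132 stress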
T5 sequence (P38532 whole entry): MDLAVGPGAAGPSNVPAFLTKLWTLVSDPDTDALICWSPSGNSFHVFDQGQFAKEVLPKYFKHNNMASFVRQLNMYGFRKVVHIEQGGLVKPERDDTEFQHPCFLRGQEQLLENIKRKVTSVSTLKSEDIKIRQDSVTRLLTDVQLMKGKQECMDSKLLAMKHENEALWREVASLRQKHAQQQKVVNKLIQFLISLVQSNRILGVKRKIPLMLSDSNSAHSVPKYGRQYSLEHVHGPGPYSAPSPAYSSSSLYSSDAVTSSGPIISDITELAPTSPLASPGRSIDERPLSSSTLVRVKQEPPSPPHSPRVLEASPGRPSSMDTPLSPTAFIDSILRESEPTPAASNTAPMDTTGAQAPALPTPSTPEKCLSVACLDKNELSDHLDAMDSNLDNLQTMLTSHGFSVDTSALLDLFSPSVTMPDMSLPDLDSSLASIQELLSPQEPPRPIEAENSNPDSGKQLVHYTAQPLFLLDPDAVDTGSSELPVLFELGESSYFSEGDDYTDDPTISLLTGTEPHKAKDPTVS

[25] = cells; type: functional, cell-based
[26] = luciferase reporter signal reduction – luminescence, H4-C neuroglioblastoma cells, dose response (AID 2458); type: functional, cell-based;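 further: H4 neuroglioblastoma cells stably carrying a luciferase reporter gene fusion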
[27] = alpha-synuclein stem-loop luciferase translation blockers – H4 neuroglioma cells, luminescence, confirmation (AID 1988); type: functional, cell-based
[28] = biological target: T6, Zinc finger protein mex-5 (Caenorhabditis elegans, UniProt Q9XUB2); assay: potency of MEX-5 RNA-binding blockers – biochemical, C. elegans, fluorescence polarization, dose response (AID 1960)
T6 sequence (Q9XUB2 whole entry): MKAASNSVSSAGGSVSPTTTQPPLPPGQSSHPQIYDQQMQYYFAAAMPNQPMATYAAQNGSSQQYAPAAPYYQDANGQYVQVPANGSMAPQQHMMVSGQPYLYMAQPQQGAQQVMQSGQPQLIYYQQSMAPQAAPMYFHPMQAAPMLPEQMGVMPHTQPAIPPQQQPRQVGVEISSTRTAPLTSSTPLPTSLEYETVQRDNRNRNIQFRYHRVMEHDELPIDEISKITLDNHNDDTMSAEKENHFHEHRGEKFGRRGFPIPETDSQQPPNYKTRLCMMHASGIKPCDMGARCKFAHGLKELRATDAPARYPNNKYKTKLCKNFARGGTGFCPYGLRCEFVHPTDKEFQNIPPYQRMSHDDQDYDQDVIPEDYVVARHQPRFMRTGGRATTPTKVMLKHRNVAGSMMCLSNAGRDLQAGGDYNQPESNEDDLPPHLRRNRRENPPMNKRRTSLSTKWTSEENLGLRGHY

[29] = alpha-synuclein stem-loop translation blockers – luminescence, H4 neuroglioblastoma cells, dose confirmation, confirmation (AID 2454); type: functional, cell-based;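 further: H4 neuroglioblastoma cells carrying an alpha-synuclein 5'UTR luciferase reporter; potency for inhibition of the luciferase signal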
[30] = biological target: T7, RNA-binding protein pos-1 (Caenorhabditis elegans, UniProt G5EF15); assay: disruptors of C. elegans POS-1 RNA interaction – biochemical, fluorescence polarization, dose response (AID 1964);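 further: purified POS-1 fused to maltose binding protein made in E. coli; potency of compounds blocking POS-1 binding to fluorescent RNA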
T7 sequence (G5EF15 whole entry): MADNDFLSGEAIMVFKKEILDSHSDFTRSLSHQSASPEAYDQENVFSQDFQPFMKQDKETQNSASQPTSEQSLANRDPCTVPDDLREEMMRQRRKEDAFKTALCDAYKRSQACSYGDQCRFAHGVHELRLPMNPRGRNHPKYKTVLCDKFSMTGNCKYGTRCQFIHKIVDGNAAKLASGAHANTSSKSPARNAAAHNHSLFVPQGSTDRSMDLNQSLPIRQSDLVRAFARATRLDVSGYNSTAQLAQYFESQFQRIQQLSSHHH

[31] = biological target: DNA dC->dU-editing enzyme APOBEC-3A (Homo sapiens, UniProt P31941); assay: A3A deaminase inhibition for selectivity – biochemical, dose response (AID 504722); type: functional
[32] = biological target: DNA dC->dU-editing enzyme APOBEC-3G (Homo sapiens, UniProt Q9HC16); assay: Dose Response confirmation of small molecule APOBEC3G DNA Deaminase Inhibitors via a fluorescence-based single-stranded DNA deaminase assay. [Related pubchem assays (depositor defined):AID493012, AID493028]; type: functional

Cytochrome P450 2D6, sequence (P10635 whole entry): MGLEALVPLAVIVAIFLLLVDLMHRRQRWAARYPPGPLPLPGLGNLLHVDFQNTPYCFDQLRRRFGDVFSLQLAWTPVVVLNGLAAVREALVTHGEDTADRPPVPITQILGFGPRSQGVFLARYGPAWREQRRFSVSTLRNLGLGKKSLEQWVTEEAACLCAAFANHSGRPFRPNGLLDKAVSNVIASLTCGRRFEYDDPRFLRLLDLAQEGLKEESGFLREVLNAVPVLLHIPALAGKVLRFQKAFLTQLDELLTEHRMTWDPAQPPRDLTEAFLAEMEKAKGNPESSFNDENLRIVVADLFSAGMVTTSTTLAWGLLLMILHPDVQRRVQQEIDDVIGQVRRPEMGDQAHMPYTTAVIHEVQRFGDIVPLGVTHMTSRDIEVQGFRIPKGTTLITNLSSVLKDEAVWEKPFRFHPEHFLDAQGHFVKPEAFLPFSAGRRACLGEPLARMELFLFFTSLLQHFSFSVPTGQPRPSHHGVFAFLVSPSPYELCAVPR

## CC[C@@]12CCCN3CC[C@@]4(c5ccc(OC)c(O)c5N(C(C)=O)[C@H]4CC1)[C@H]32
[1]
  AC50: 20 µM (inconclusive)

## CCOC(=O)c1cnc(-n2nc(C)cc2C)nc1NCc1ccccc1
[2]
  EC50: 2.09 µM (active)
[3]
  IC50: 5.83 µM (active)
[4]
  EC50: > 150 µM (not active)
[5]
  EC50: 9.69 µM (active)
[6]
  EC50: 8.49 µM (active)
[7]
  IC50: > 67 µM (not active)
[8]
  AC50: 5.4 µM (active)
[9]
  EC50: > 60 µM (not active)

## COc1cc(C(CC(=O)N2CCCC2)c2c(OC)cc(OC)c3c(-c4ccccc4)cc(=O)oc23)cc(OC)c1OC (configuration not stated)
[10]
  EC50: 6.57 µM (active)

## CCC(=O)N1CCN(c2ccccc2NC(=O)COc2cc(C)ccc2C(C)C)CC1
[11]
  IC50: > 79 µM (inactive)
[12]
  EC50: 2.97 µM (active)

## O=c1[nH]c2cc3ccccc3cc2nc1C(F)(F)F
[13]
  IC50: 46.2 µM (inactive)
[14]
  IC50: 2.9 µM (active)
[15]
  IC50: > 75.5 µM (not active)
[16]
  IC50: > 66 µM (inactive)

## COC(=O)c1cc2c(C)cc3ccc(C)cn3c-2c1C(=O)OC
[14]
  IC50: > 2.21 µM (active)
[15]
  IC50: 12.2 µM (not active)

## CCCn1c(=O)nc(NCc2ccc(C)cc2)[nH]c1=O
[17]
  IC50: > 100 µM (not active)
[18]
  IC50: > 100 µM (inactive)
[19]
  IC50: > 100 µM (not active)
[20]
  IC50: > 100 µM (inactive)

## C=CCCC/C=C(/C)C(OCc1ccc(OC)cc1)C(CC/C=C(\C)C(N)=O)OC (configuration not stated)
[21]
  AC50: 2.51 µM (inconclusive)
[1]
  AC50: 3.16 µM (inconclusive)

## CCOC(=O)C1Nc2c(OC)cccc2C2OCCC12 (configuration not stated)
[17]
  IC50: > 100 µM (not active)
[18]
  IC50: > 100 µM (inactive)
[19]
  IC50: > 100 µM (not active)
[20]
  IC50: > 100 µM (inactive)

## CCc1ccc(Nc2n[n+](-c3ccccc3)c(-c3cc(OC)c(OC)cc3Br)s2)cc1
[10]
  EC50: 21.2 µM (inactive)

## C=CCNC(=O)CCCOc1cc(C)ccc1C
[22]
  EC50: > 50 µM (not active)

## CCN(C1CCCCC1)S(=O)(=O)c1ccc(OC)c(C)c1
[23]
  EC50: > 50 µM (active)
[12]
  EC50: 3.88 µM (active)

## Cc1cc(/C=c2/sc3nc4ccccc4n3c2=O)c(C)n1-c1ccccn1
[24]
  EC50: < 0.16 µM (active)
[25]
  EC50: 0.076 µM (active)
[26]
  EC50: 0.084 µM (active)
[27]
  EC50: < 0.1 µM (active)
[28]
  EC50: > 300 µM (not active)
[29]
  EC50: 0.092 µM (active)
[30]
  EC50: > 300 µM (not active)

## Cc1ccsc1/C=N/n1c(S)nnc1-c1ccco1
[31]
  IC50: > 100 µM (inactive)
[32]
  IC50: 1.79 µM (active)

## C/C(=N\O)c1ccc2c3ccccc3n(C)c2c1
[22]
  EC50: > 50 µM (not active)
